Source: patent US12350308B2, “Phosphorylcholine conjugates and uses thereof” (TPCERA LTD., priority 2013, dated 2025)
*1 amine or outer side, *2 acyl side, *3 side chain or, on linkers, in order; H or OH if unused. Where a SMILES comes first, the peptide text is derived from it. [ ]: non-standard residue; d: D form. X1 = C[N+](C)(C)CCOP(=O)([O-])Oc1ccc(N=Nc2cc(C[C@H](N[*:1])C(=O)[*:2])ccc2O)cc1

Columns and labels:
Type in all cases: in vivo
NZBxW/F1 lupus mice [1] = experiment: Survival of lupus mice treated with TD-PC (Kaplan-Meier); settings: already at week 24
Protocol: A main complication of lupus nephritis is a short survival time due to severe kidney failure. Therefore, the survival time of mice treated either with TD-PC or with PC, tuftsin derivative (SEQ ID NO: 25) or PBS (control) was analyzed.

NZBxW/F1 lupus mice [2] = experiment: Circulating anti-dsDNA antibodies in lupus mice treated with TD-PC (ELISA); settings: sera at 30 weeks, dilution 1:800; between groups incl. PBS
Protocol: Titers of circulating anti-dsDNA antibodies in the sera of control and treated mice were monitored during the development of lupus, and their levels were measured every 3 weeks. […] FIG. 23 presents the anti dsDNA antibodies titers in the sera at the age 30 weeks at a dilution of 1:800.

[3] = tested on: splenocytes of NZBW/F1 female mice; experiment: Cytokine mRNA in splenocytes of lupus mice treated with TD-PC (RT-PCR); settings: week 30; vs PBS
Protocol: (§1) NZBW/F1 female mice having lupus were treated with TD-PC (SEQ ID NO: 25 conjugated to PC) or the corresponding control treatments. Mice were sacrificed at week 30, and their splenocytes were studied in-vitro for the expression of pro-inflammatory cytokines (IFNγ, IL-17) and anti-inflammatory (TGFβ, IL-10) cytokines using RT-PCR. […] In contrast, TD-PC increased the mRNA expression of the anti-inflammatory cytokine TGFβ in the (p<0.001) compared to the mRNA expressed by splenocytes derived from PBS-treated mice (FIG. 24A).

[4] = tested on: splenocytes of NZBW/F1 female mice; experiment: Cytokine secretion in-vitro by splenocytes of lupus mice treated with TD-PC; settings: vs PBS
Protocol: as §1
However, a prominent increase in anti-inflammatory cytokines (TGFβ, IL-10) secretion in-vitro by splenocytes derived from TD-PC treated mice is illustrated in FIG. 24B. […] IFNγ secretion upon tuftsin derivative (SEQ ID NO: 25) or PC treatments was reduced by 2.5 and 1.5 times respectively (p<0.03 and p<0.04, respectively).

CD4+CD25+FOXP3+ Tregs = experiment: Treg expansion in spleen cells of lupus mice treated with TD-PC (FACS); settings: gating on CD4+ T cells; PBS 4%
Excerpt: The percentage of CD4+CD25+FOXP3+ Tregs phenotype subset in spleen cells following treatment with TD-PC, tuftsin derivative (SEQ ID NO: 25), PC or PBS, is elucidated in FIGS. 25A-25B.

CIA mice [5] = experiment: Arthritis score in CIA mice treated orally or s.c. with TD-PC; settings: day 31
Excerpt: The main characteristic of rheumatoid arthritis is joint deformation due to high inflammation. The TD-PC effect on arthritis score in CIA mice was monitored. […] Arthritis score was lower in both groups of TD-PC treatment (oral and s.c.) starting two weeks after disease induction—day 14, until the mice were sacrificed—day 31.

CIA mice [6] = experiment: Anti-collagen type II antibodies in sera of CIA mice; settings: day 30, sera dilution 1:200
Protocol: Titers of anti-collagen type II antibodies in mice sera at a dilution of 1:200 (OD at 405 nm) were measured at day 30 after disease induction while arthritis was fully manifested (FIG. 27). […] The mean OD level of the anti-collagen type II antibodies in the mice treated with TD-PC per os was 0.685±0.09 while the corresponding mean OD level in control mice treated with PBS per os was 1.09±0.17. Furthermore, the mean OD level of the anti-collagen type II antibodies in mice treated with TD-PC s.c was 0.615±0.08, whereas the corresponding mean OD level mice treated with PBS s.c was 1.03±0.13 (p<0.001).

[7] = tested on: CD4+CD25+FOXP3+ Treg cells; experiment: Treg expansion in splenocytes of CIA mice (FACS), Example 16; settings: vs PBS
Excerpt: The frequency of CD4+CD25+FOXP3+ Treg cells subset in isolated mice splenocytes, following treatment with TD-PC or control (PBS) is elucidated in FIGS. 29A-29B. […] Representative data of the CD4+CD25+FOXP3+ levels in splenocytes derived from TD-PC and PBS treated mice gating on CD4+ T cells are presented in FIG. 29A and the corresponding statistics is presented in FIG. 29B.

Breg cells = experiment: Breg expansion in splenocytes of CIA mice (FACS), Example 17; settings: subsets CD19+IL-10+TIM-1+ and IL-10highCD5highCD1dhigh; vs PBS
Protocol: The mean percentage of Breg cells in isolated splenocytes following treatment with TD-PC or PBS was measured within two main subsets CD19+IL-10+TIM-1+ (representative data: FIG. 30A, statistics: FIG. 30C, n=15) and IL-10^highCD5^highCD1d^high (representative data: FIG. 30B, statistics: FIG. 30D, n=15).

DBA/1 CIA mice = experiment: Arthritis score in mice with established CIA (treatment from day 16)
Excerpt: Rheumatoid Arthritis is a progressive joint deformation disease caused by severe inflammation. CIA mice were subjected to subcutaneous injections of TD-PC, tuftsin derivative (SEQ ID NO: 25), PC, a mix of TD and PC, or PBS, 3 times a week. […] Treatment started as day 16 after disease induction when disease symptoms were already notable. […] The significant reduction in arthritis score was illustrious from day 7 after treatment administration and lasted until day 35 (the day mice were sacrificed).

[8] = tested on: IL-10+CD25+CD1d+ Breg cells; experiment: Breg expansion in splenocytes of mice with established CIA (FACS); settings: isolated splenocytes; PBS 0.4%
Protocol: The mean percentage of Breg cells in isolated splenocytes following treatment with TD-PC, PBS, TD (SEQ ID NO: 25), PC, TD+PC and None was measured within IL-10+CD25+CD1d+ subset. […] Representative data of IL-10+CD25+CD1d+ levels in splenocytes derived from TD-PC, PBS, TD (SEQ ID NO: 25), PC and TD+PC treated mice gating on IL-10+ B cells, are presented in FIG. 34A.

## C[C@@H](O)[C@H](N)C(=O)N[C@@H](CCCCN)C(=O)N1CCC[C@H]1C(=O)N[C@@H](CCCNC(=N)N)C(=O)NCC(=O)N[C@@H](Cc1ccc(O)c(N=Nc2ccc(OP(=O)([O-])OCC[N+](C)(C)C)cc2)c1)C(=O)O [TD-PC, Thr-Lys-Pro-Arg-Gly-Tyr-PC] (H-TKPRG[X1]-OH)
NZBxW/F1 lupus mice [1]
  percentage of death number vs PBS injected mice: significant difference
NZBxW/F1 lupus mice [2]
  titers of circulating anti-dsDNA antibodies: No statistically significant change
[3]
  mRNA expression of IFNγ in splenocytes: inhibited
  mRNA expression of TGFβ in splenocytes: increased
[4]; in vitro
  IL-17 secretion from splenocytes: significant decline
[4]; in-vitro
  IL-10 secretion by splenocytes: remarkably increased
  TGFβ production by splenocytes: significantly upregulated
  reduction of splenocyte secretion of IFNγ: 5.2 times
CD4+CD25+FOXP3+ Tregs
  CD4+CD25+FOXP3+ Tregs in spleen cells: 18%
CIA mice [5]; TD-PC treated groups (oral and s.c.), control 11.8
  mean arthritis score: 1.5 (ranged from 0 to 4)
CIA mice [5]; oral, PBS oral 12.6±1.14
  mean arthritis score: 1.6±1.5
CIA mice [5]; s.c., PBS s.c 11±1.22
  mean arthritis score: 1.4±0.84
CIA mice [6]; per os, PBS 1.09±0.17
  mean OD level of anti-collagen type II antibodies: 0.685±0.09 OD at 405 nm
CIA mice [6]; s.c, PBS 1.03±0.13
  mean OD level of anti-collagen type II antibodies: 0.615±0.08 OD at 405 nm
[7]
  CD4+CD25+FOXP3+ Treg cells in isolated splenocytes: striking increase
Breg cells
  Breg phenotype expansion in isolated splenocytes: significantly stimulated
DBA/1 CIA mice; day 35, s.c. 3 times a week, PBS 13.8±0.45
  mean arthritis score: 6.8±0.8
DBA/1 CIA mice; time 0 (treatment initiation, day 16 after disease induction), baseline
  average arthritis score: 3.6±0.9
[8]
  mean percentage of IL-10+CD25+CD1d+ Breg cells: 13.73%
